Data from patent US20140377219A1, “HIV INHIBITORS” (New york Blood Center, Inc., priority 2011, published 2014).
Read-outs that look alike come from different tables or passages of the source.

Tests used:
MT-2 cells = test: Cytotoxicity in MT-2 cells (XTT); assay type: cell-based
Outline: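 XTT viability read-out: MT-2 cells (10^5 cells/ml) incubated with graded compound concentrations four days at 37° C; PBMC at 5×10^5 cells/ml, measured after seven days. CC50 derived from percentage cytotoxicity.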

PBMC = test: Cytotoxicity in PBMC (XTT); assay type: cell-based
Method: Cytotoxicity of small molecules in MT-2 cells and PBMC was measured by the XTT ((sodium 3′-(1-(phenylamino)-carbonyl)-3,4-tetrazolium-bis(4-methoxy-6-nitro)benzene-sulfonic acid hydrate)) method. Briefly, for MT-2 cells, 100 μl of a small molecule at graded concentrations was added to an equal volume of cells (10^5 cells/ml) in 96-well plates followed by incubation at 37° C. for four days, which ran parallel with the neutralization assay in MT-2 (except medium was added instead of virus). In the case of PBMC, 5×10^5 cells/ml was used and the cytotoxicity was measured after seven days. […] The percentage cytotoxicity and the CC50 values were calculated as described above.

[1] = test system: pNL4-3 gp41 (36G) V38E, N42S (fusion resistant isolate); assay type: cell-based, HIV-1; details: subtype B, MT-2, X4, fusion resistant isolate, read-out: IC50 (μM) ± S.D., inhibitory activity on infection
[2] = test system: Panel C env Du172, clone 17 (SVPC4); assay type: cell-based; details: TZM-bl, read-out: IC50 (μM) ± S.D., antiviral activity against HIV-1 envelope pseudoviruses
[3] = test system: Panel C env Du422, clone 1 (SVPC5); assay type: cell-based; details: TZM-bl, read-out: IC50 (μM) ± S.D., antiviral activity against HIV-1 envelope pseudoviruses
[4] = test system: Panel C env ZM-197M.PB7, SVPC6; assay type: cell-based; details: TZM-bl, read-out: IC50 (μM) ± S.D., antiviral activity against HIV-1 envelope pseudoviruses
[5] = test system: Panel C env ZM-214M.PL15, SVPC7; assay type: cell-based; details: TZM-bl, read-out: IC50 (μM) ± S.D., antiviral activity against HIV-1 envelope pseudoviruses
[6] = test system: Panel C env ZM-233M.PB6, SVPC9; assay type: cell-based; details: TZM-bl, read-out: IC50 (μM) ± S.D., antiviral activity against HIV-1 envelope pseudoviruses
[7] = test system: Panel C env ZM-249M.PL1, SVPC10; assay type: cell-based; details: TZM-bl, read-out: IC50 (μM) ± S.D., antiviral activity against HIV-1 envelope pseudoviruses
[8] = test system: Panel C env ZM-53M.PB12, SVPC11; assay type: cell-based; details: TZM-bl, read-out: IC50 (μM) ± S.D., antiviral activity against HIV-1 envelope pseudoviruses
[9] = test system: Panel C env ZM-109F.PB4, SVPC13; assay type: cell-based; details: TZM-bl, read-out: IC50 (μM) ± S.D., antiviral activity against HIV-1 envelope pseudoviruses
[10] = test system: Panel C env ZM-135M.PL10a, SVPC15; assay type: cell-based; details: TZM-bl, read-out: IC50 (μM) ± S.D., antiviral activity against HIV-1 envelope pseudoviruses
[11] = test system: Panel C env CAP-45.2.00.G3, SVPC16; assay type: cell-based; details: TZM-bl, read-out: IC50 (μM) ± S.D., antiviral activity against HIV-1 envelope pseudoviruses
[12] = test system: Panel C env CAP-210.2.00.E8, SVPC17; assay type: cell-based; details: TZM-bl, read-out: IC50 (μM) ± S.D., antiviral activity against HIV-1 envelope pseudoviruses
[13] = test system: Panel B env pCAAN5342 clone A2 (SVPB19); assay type: cell-based; details: TZM-bl, read-out: IC50 (μM) ± S.D., antiviral activity against HIV-1 envelope pseudoviruses
[14] = test system: laboratory-adapted HIV-1 IIIB strain
Method: (§1) In brief, 1×10^4 MT-2 cells were infected with HIV-1 at 100 TCID50 (50% tissue culture infective dose) (0.01MOI) in 200 μl medium in the presence or absence of small molecules at graded concentrations and incubated overnight. The culture supernatants were then removed and replaced with fresh media. On the fourth day post-infection, 100 μl of culture supernatants were collected from each well, mixed with equal volume of 5% Triton X-100 and tested for p24 antigen by sandwich-ELISA. The percent inhibition of p24 production and IC50 values were calculated by the GraphPad Prism software (GraphPad Software Inc.).

HIV-1 SF162 = test: Neutralization assay in PBMC (p24 ELISA); details: read-out: IC50 (μM) ± S.D., inhibitory activity on infection; SF162, subtype B, PBMC, R5, laboratory strain
Method: (§2) PBMCs were isolated from the blood of healthy donors at the New York Blood Center by standard density-gradient centrifugation using Histopaque-1077 (Sigma-Aldrich). The cells were cultured at 37° C. for 2 h. Non-adherent cells were collected and resuspended at 5×10^6 cells/ml in RPMI-1640 medium containing 10% (v/v) fetal bovine serum, 5 μg/ml of phytohemagglutinin, and 100 U/ml of IL-2 (Sigma-Aldrich), followed by incubation at 37° C. for three days.

[15] = test system: primary HIV-1 isolate 93BR029 (clade F, R5); test: Neutralization assay in PBMC (p24 ELISA); details: read-out: IC50 (μM) ± S.D., inhibitory activity on infection; 93BR029, subtype F, PBMC, R5, primary isolate
Method: as §2

[16] = test system: primary HIV-1 isolate 92UG031 (subtype A, R5); test: Neutralization assay in PBMC (p24 ELISA); details: read-out: IC50 (μM) ± S.D., inhibitory activity on infection; 92UG031, subtype A, PBMC, R5, primary isolate
Method: (§3) The inhibitory activity of small molecules on infection by primary HIV-1 isolates was determined. PBMCs were isolated from the blood of healthy donors at the New York Blood Center by standard density-gradient centrifugation using Histopaque-1077 (Sigma-Aldrich). The cells were cultured at 37° C. for 2 h. Non-adherent cells were collected and resuspended at 5×10^6 cells/ml in RPMI-1640 medium containing 10% (v/v) fetal bovine serum, 5 μg/ml of phytohemagglutinin, and 100 U/ml of IL-2 (Sigma-Aldrich), followed by incubation at 37° C. for three days.

[17] = test system: primary HIV-1 isolate 92US657 (subtype B, R5); test: Neutralization assay in PBMC (p24 ELISA); details: read-out: IC50 (μM) ± S.D., inhibitory activity on infection; 92US657, subtype B, PBMC, R5, primary isolate
Method: as §2

[18] = test system: primary HIV-1 isolate 93TH060 (subtype E, R5); test: Neutralization assay in PBMC (p24 ELISA); details: read-out: IC50 (μM) ± S.D., inhibitory activity on infection; 93TH060, subtype E, PBMC, R5, primary isolate
Method: as §3

HIV-1 MN = test: Multi-cycle neutralization assay in MT-2 cells; details: read-out: IC50 (μM) ± S.D., inhibitory activity on infection; MN, subtype B, MT-2, X4, laboratory strain
Method: as §1

[19] = test system: AZT-resistant (AZT-R) HIV-1 strain; test: Multi-cycle neutralization assay in MT-2 cells; details: read-out: IC50 (μM) ± S.D., inhibitory activity on infection; AZT-R, subtype B, MT-2, X4, RT-resistant isolate
HIV-1 SF2 = test: Multi-cycle neutralization assay in MT-2 cells; details: read-out: IC50 (μM) ± S.D., inhibitory activity on infection; SF2, subtype B, MT-2, R5X4, laboratory strain
HIV-1 RF = test: Multi-cycle neutralization assay in MT-2 cells; details: read-out: IC50 (μM) ± S.D., inhibitory activity on infection; RF, subtype B, MT-2, R5X4, laboratory strain
HIV-1 89.6 = test: Neutralization assay in PBMC (p24 ELISA); details: read-out: IC50 (μM) ± S.D., inhibitory activity on infection; 89.6, subtype B, PBMC, R5X4, laboratory strain
Method: as §3

[20] = read-out: IC50 (μM) ± S.D., inhibitory activity on infection, IIIB, subtype B, MT-2, X4, laboratory strain
[21] = read-out: MT-2 Cells IC50 (μM ± SD), multi-cycle assay, MT-2 cells, HIV-1 IIIB
[22] = MT-2 cells, XTT, four days, read-out: MT-2 Cells CC50
[23] = PBMC, XTT, seven days, read-out: PBMC CC50

## Cc1nc(C(NC(=O)C(=O)Nc2ccc(Cl)cc2)C2CCCCN2)sc1CO.Cl (stereo not drawn) [Compound 6, N^1-(4-chlorophenyl)-N^2-((5-(hydroxymethyl)-4-methylthiazol-2-yl)(piperidin-2-yl)methyl)oxalamide.HCl]
MT-2 cells
  % toxicity at that dose (number in parenthesis), MT-2 cells: 40%
  CC50: > 108 µM
PBMC
  CC50: > 160 µM
[1]
  IC50: 5.8 ± 0.3 µM
[2]
  IC50: 3 ± 0.38 µM
[3]
  IC50: 15.9 ± 0.4 µM
[4]
  IC50: > 21 µM
[5]
  IC50: > 21 µM
[6]
  IC50: 5.6 ± 1.3 µM
[7]
  IC50: 1.5 ± 0.6 µM
[8]
  IC50: 2.4 ± 0.2 µM
[9]
  IC50: 1.2 ± 0.2 µM
[10]
  IC50: 0.73 ± 0.13 µM
[11]
  IC50: 4.7 ± 0.95 µM
[12]
  IC50: 15.1 ± 1.5 µM
[13]
  IC50: 2.3 ± 0.3 µM
[14]; [20]
  IC50: 4.7 ± 0.6 µM
[14]; [21]
  IC50: 4.7 ± 0.6 µM
HIV-1 SF162
  IC50: 12.7 ± 0.7 µM
[15]
  IC50: 8 ± 1.3 µM
[16]
  IC50: 9.3 ± 0.7 µM
[17]
  IC50: 8.6 ± 0.9 µM
[18]
  IC50: 7.2 ± 0.6 µM
HIV-1 MN
  IC50: 4 ± 0.9 µM
[19]
  IC50: 4.4 ± 1.1 µM
HIV-1 SF2
  IC50: 5.7 ± 0.9 µM
HIV-1 RF
  IC50: 9.6 ± 0.8 µM

## Cc1ccc(NC(=O)C(=O)NC(c2nc(C)c(CO)s2)C2CCCCN2)cc1F.Cl (stereo not drawn) [Compound 28, N^1-(3-fluoro-4-methylphenyl)-N^2-((5-(hydroxymethyl)-4-methylthiazol-2-yl)(piperidin-2-yl)methyl)oxalamide.HCl]
MT-2 cells; MT-2 cells, XTT, four days, listed as NBD-11008, read-out: MT-2 Cells CC50
  CC50: ~85 µM
MT-2 cells; [22]
  CC50: > 88 µM
MT-2 cells; at the dose given as CC50 bound
  % toxicity at that dose (number in parenthesis), MT-2 cells: 30%
PBMC; [23]
  CC50: ~106 µM
[1]
  IC50: 4.6 ± 0.4 µM
[3]
  IC50: > 42 µM
[4]
  IC50: > 42 µM
[5]
  IC50: > 42 µM
[7]
  IC50: > 42 µM
[8]
  IC50: > 42 µM
[9]
  IC50: > 42 µM
[12]
  IC50: > 42 µM
[13]
  IC50: 1.5 ± 0.1 µM
[14]; [20]
  IC50: 3.7 ± 0.7 µM
[14]; [21]
  IC50: 5.3 ± 0.5 µM
HIV-1 89.6
  IC50: 3.9 ± 0.5 µM
HIV-1 SF162
  IC50: 8.1 ± 1.2 µM
[15]
  IC50: 5.2 ± 1.1 µM
[16]
  IC50: 13.4 ± 1.2 µM
[17]
  IC50: 12.3 ± 1.3 µM
[18]
  IC50: 9.9 ± 1.8 µM
HIV-1 MN
  IC50: 24.6 ± 4.6 µM
[19]
  IC50: 5.5 ± 0.7 µM
HIV-1 SF2
  IC50: 38.7 ± 4.5 µM
HIV-1 RF
  IC50: 11 ± 0.6 µM

## Cc1nc(C(NC(=O)C(=O)Nc2ccc(Cl)c(F)c2)C2CCCCN2)sc1CCO.Cl (stereo not drawn) [Compound 39, N^1-(4-chloro-3-fluorophenyl)-N^2-((5-(2-hydroxyethyl)-4-methylthiazol-2-yl)(piperidin-2-yl)methyl)oxalamide.HCl]
PBMC
  % toxicity at that dose (number in parenthesis), PBMC: (20%)
  CC50: > 81 µM
[1]
  IC50: 3.9 ± 0.3 µM
[2]
  IC50: 5.3 ± 0.2 µM
[3]
  IC50: 2.5 ± 0.1 µM
[4]
  IC50: 2.3 ± 0.2 µM
[5]
  IC50: 2.9 ± 0.4 µM
[6]
  IC50: 2.5 ± 0.5 µM
[7]
  IC50: 2.5 ± 0.2 µM
[9]
  IC50: 3 ± 0.1 µM
[10]
  IC50: 0.61 ± 0.1 µM
[11]
  IC50: 3.4 ± 0.4 µM
[12]
  IC50: 3.2 ± 0.6 µM
[13]
  IC50: 0.8 ± 0.3 µM
[14]; [20]
  IC50: 3.5 ± 0.9 µM
[14]; [21]
  IC50: 3.5 ± 0.9 µM
HIV-1 89.6
  IC50: 6.2 ± 0.3 µM
HIV-1 SF162
  IC50: 11.9 ± 1 µM
[15]
  IC50: 8.3 ± 0.7 µM
[16]
  IC50: 12.9 ± 1.5 µM
[17]
  IC50: 7.1 ± 0.9 µM
[18]
  IC50: 13.7 ± 0.9 µM
HIV-1 MN
  IC50: 16.7 ± 1.5 µM
[19]
  IC50: 6.8 ± 0.6 µM
HIV-1 SF2
  IC50: 15.8 ± 1.7 µM
HIV-1 RF
  IC50: 11.8 ± 1.2 µM

## CC1(C)CC(NC(=O)C(=O)Nc2ccc(Cl)cc2)CC(C)(C)N1 [NBD-556, reference compound]
MT-2 cells; MT-2 cells, XTT, four days, listed as 1, read-out: MT-2 Cells CC50
  CC50: ~150 µM
MT-2 cells; [22]
  CC50: 280 µM
PBMC; [23]
  CC50: 961 µM
[1]
  IC50: 11 ± 0.9 µM
[2]
  IC50: 4.2 ± 0.23 µM
[3]
  IC50: 11.8 ± 2.9 µM
[4]
  IC50: 7.9 ± 0.9 µM
[5]
  IC50: 6.5 ± 1.3 µM
[6]
  IC50: 4.9 ± 1.13 µM
[7]
  IC50: 6.1 ± 1.7 µM
[8]
  IC50: 13.4 ± 0.06 µM
[9]
  IC50: 10.4 ± 3.5 µM
[10]
  IC50: 1.5 ± 0.01 µM
[11]
  IC50: 7.9 ± 0.87 µM
[12]
  IC50: 13.3 ± 1.3 µM
[13]
  IC50: 2.4 ± 0.3 µM
[14]; [20]
  IC50: 6.5 ± 0.1 µM
[14]; [21]
  IC50: 8 ± 0.2 µM
HIV-1 89.6
  IC50: 4.8 ± 1 µM
HIV-1 SF162
  IC50: 48.9 ± 7.3 µM
[15]
  IC50: 40 ± 10.6 µM
[17]
  IC50: 48 ± 1.65 µM
[18]
  IC50: > 45 µM
HIV-1 MN
  IC50: 15.9 ± 1.6 µM
[19]
  IC50: 58 ± 14.3 µM
HIV-1 SF2
  IC50: ≥ 118 µM
HIV-1 RF
  IC50: 18.7 ± 1.3 µM
